# Reference: patent US20250320184A1 (SIRONAX LTD., priority 2022, published 2025)
# pIC50: −log10 of the molar value.
# Molecular target: T1, SARM1 (50-724) (Homo sapiens, UniProt Q6SZW1)
# T1 sequence (Q6SZW1 50-724): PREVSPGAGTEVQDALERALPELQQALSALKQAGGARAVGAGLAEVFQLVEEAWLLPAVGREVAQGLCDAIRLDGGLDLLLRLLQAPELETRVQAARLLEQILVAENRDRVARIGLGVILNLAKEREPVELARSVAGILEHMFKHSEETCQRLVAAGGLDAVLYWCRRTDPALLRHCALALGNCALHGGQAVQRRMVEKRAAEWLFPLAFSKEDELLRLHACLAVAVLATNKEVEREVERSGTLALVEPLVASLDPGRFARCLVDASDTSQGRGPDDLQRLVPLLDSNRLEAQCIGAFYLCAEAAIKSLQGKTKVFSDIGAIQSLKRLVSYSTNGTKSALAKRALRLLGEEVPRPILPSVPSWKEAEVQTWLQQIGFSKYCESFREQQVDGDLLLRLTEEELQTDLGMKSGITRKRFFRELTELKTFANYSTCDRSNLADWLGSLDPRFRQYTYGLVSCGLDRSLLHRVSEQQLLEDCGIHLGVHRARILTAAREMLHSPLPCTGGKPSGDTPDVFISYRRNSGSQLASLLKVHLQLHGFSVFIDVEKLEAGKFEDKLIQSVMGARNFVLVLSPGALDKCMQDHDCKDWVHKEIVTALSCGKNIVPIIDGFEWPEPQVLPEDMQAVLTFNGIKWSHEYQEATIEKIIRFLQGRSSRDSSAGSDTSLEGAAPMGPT
# Test: biochemical
# Protocol: An enzymatic assay was performed in a 384-well plate using Dulbecco's phosphate-buffered saline (PBS) as the reaction buffer. […] The reaction was initiated by adding a mixture of 200 μM nicotinamide mononucleotide (NMN) as activator and 100 μM NAD^+ as substrate. After 1 h of incubation at room temperature, the reaction was terminated with 10 times volume of 70% acetonitrile, then centrifuged at 3800 rpm for 10 min.
row,pIC50,SMILES
1,> 7.00,"CC(Nc1ccc2c(c1)NC(=O)C21CC1)c1nc(Cl)c(Cl)s1 (racemic) [Example 244, 6′-((1-(4,5-dichlorothiazol-2-yl)ethyl)amino)spiro[cyclopropane-1,3′-indolin]-2′-one]"
2,6.30 to 7.00,"CCC(Nc1ccc2c(c1)C(=O)NCC2)c1cc(C)cc(F)c1 (racemic) [Example 109, 7-((1-(3-fluoro-5-methylphenyl)propyl)amino)-3,4-dihydroisoquinolin-1(2H)-one]"
3,6.30 to 7.00,"CC(Nc1ccc2c(c1)c(C(=O)N(C)C)nn2C)c1c(Cl)ccc(F)c1Cl (racemic) [Compound 245, 5-((1-(2,6-dichloro-3-fluorophenyl)ethyl)amino)-N,N1-trimethyl-1H-indazole-3-carboxamide]"
4,6.30 to 7.00,"Cc1nc2cc(NS(=O)(=O)c3cccc(Cl)c3Cl)ccc2s1 [Compound 29, 2,3-dichloro-N-(2-methylbenzo[d]thiazol-5-yl)benzenesulfonamide]"
5,> 7.00,"Cc1c2ccc(NC(C)c3nc(Cl)c(Cl)s3)cc2nn1CCO (racemic) [Compound 307, 2-(6-((1-(4,5-dichlorothiazol-2-yl)ethyl)amino)-3-methyl-2H-indazol-2-yl)ethan-1-ol]"
6,< 6.00,"CC(C)c1c[nH]c(=O)c2cc(NS(=O)(=O)c3cccc(Cl)c3Cl)ccc12 [Compound 66, 2,3-dichloro-N-(4-isopropyl-1-oxo-1,2-dihydroisoquinolin-7-yl)benzenesulfonamide]"
7,> 7.00,"CC(Nc1ccc2c(c1)nc(C(N)=O)n2C)c1c(Cl)ccc(F)c1Cl (racemic) [Compound 263, 5-((1-(2,6-dichloro-3-fluorophenyl)ethyl)amino)-1-methyl-1H-benzo[d]imidazole-2-carboxamide]"
8,> 7.00,"CC1(C)CN(C(=O)c2cc[nH]c(=O)c2)c2cc(NS(=O)(=O)c3cccc(Cl)c3Cl)ccc21 [Compound 326, 2,3-dichloro-N-(3,3-dimethyl-1-(2-oxo-1,2-dihydropyridine-4-carbonyl)indolin-6-yl)benzenesulfonamide]"
9,< 6.00,"Cc1c2ccc(NC(C)c3sc(Cl)nc3Cl)cc2nn1CC(N)=O (single isomer, unassigned) [Compound 347A]"
10,6.30 to 7.00,"Clc1cccc(C(Nc2ccc3cccnc3c2)C2CC2)c1Cl (centres unmarked) [Example 180, N-(cyclopropyl(2,3-dichlorophenyl)methyl)quinolin-7-amine]"
11,> 7.00,"Cc1c(Cl)c(C(C)Nc2ccc3cc[nH]c(=O)c3c2)nn1C (single isomer, unassigned) [Compound 226B]"
12,> 7.00,"CC(Nc1ccc2cc[nH]c(=O)c2c1)c1nn(C2CC2)c(Cl)c1Cl (racemic) [Compound 321, 7-((1-(4,5-dichloro-1-cyclopropyl-1H-pyrazol-3-yl)ethyl)amino)isoquinolin-1(2H)-one]"
13,> 7.00,"CC(Nc1ccc2cc[nH]c(=O)c2c1)c1csc(Cl)c1Cl (racemic) [Compound 353, 7-((1-(4,5-dichlorothiophen-3-yl)ethyl)amino)isoquinolin-1(2H)-one]"
14,> 7.00,"CC(Nc1ccc2cc[nH]c(=O)c2c1)c1cc(Cl)ccc1Cl (racemic) [Example 132, 7-((1-(2,5-dichlorophenyl)ethyl)amino)isoquinolin-1(2H)-one]"
15,6.30 to 7.00,"Cn1ncc2cc(NS(=O)(=O)c3cccc(Cl)c3Cl)ccc21 [Compound 79, 2,3-dichloro-N-(1-methyl-1H-indazol-5-yl)benzenesulfonamide]"
16,> 7.00,"Cc1nc(C(C)Nc2ccc3cc[nH]c(=O)c3c2)sc1Cl (racemic) [Compound 207, 7-((1-(5-chloro-4-methylthiazol-2-yl)ethyl)amino)isoquinolin-1(2H)-one]"
17,> 7.00,"Cc1c2ccc(NS(=O)(=O)c3cccc(Cl)c3Cl)cc2nn1C [Compound 72, 2,3-dichloro-N-(2,3-dimethyl-2H-indazol-6-yl)benzenesulfonamide]"
18,6.30 to 7.00,COC(=O)Cc1ccc(NS(=O)(=O)c2cccc(Cl)c2Cl)cc1 [Compound 67]
19,6.00 to 6.30,"Cc1cc(C)c(S(=O)(=O)Nc2ccc3c(c2)C(=O)NCC3)c(C)c1 [Example 10A, 2,4,6-trimethyl-N-(1-oxo-1,2,3,4-tetrahydroisoquinolin-7-yl)benzenesulfonamide]"
20,> 7.00,"CC1(C)NC(=O)c2cc(NS(=O)(=O)c3cccc(Cl)c3Cl)ccc21 [Compound 227, 2,3-dichloro-N-(1,1-dimethyl-3-oxoisoindolin-5-yl)benzenesulfonamide]"
21,> 7.00,"CC(Nc1ccc2cc[nH]c(=O)c2c1)c1cc(F)cc(F)c1Cl (racemic) [Example 137, 7-((1-(2-chloro-3,5-difluorophenyl)ethyl)amino)isoquinolin-1(2H)-one]"

row,pIC50,SMILES
1,< 6.00,Cc1cc(S(=O)(=O)Nc2ccc(CC(N)=O)cc2)c(F)cc1F [Example 8A]
2,> 7.00,"CC(Nc1ccc2snc(C(=O)N3CC(O)C3)c2c1)c1nc(Cl)c(Cl)s1 (racemic) [Compound 346, (5-((1-(4,5-dichlorothiazol-2-yl)ethyl)amino)benzo[d]isothiazol-3-yl)(3-hydroxyazetidin-1-yl)methanone]"
3,6.30 to 7.00,"N#Cc1c[nH]c(=O)c2cc(NS(=O)(=O)c3cccc(Cl)c3Cl)ccc12 [Compound 63, 2,3-dichloro-N-(4-cyano-1-oxo-1,2-dihydroisoquinolin-7-yl)benzenesulfonamide]"
4,> 7.00,"O=c1[nH]cc(Cl)c2ccc(NS(=O)(=O)c3c(Cl)ccc(Cl)c3Cl)cc12 [Compound 197, 2,3,6-trichloro-N-(4-chloro-1-oxo-1,2-dihydroisoquinolin-7-yl)benzenesulfonamide]"
5,< 6.00,"Cc1sc(C(C)Nc2ccc3c(C)n(CC(N)=O)nc3c2)nc1Cl (single isomer, unassigned) [Compound 381]"
6,> 7.00,"CC(Nc1ccc2cn[nH]c(=O)c2c1)c1c(Cl)ccc(Cl)c1Cl (racemic) [Example 198, 7-((1-(2,3,6-trichlorophenyl)ethyl)amino)phthalazin-1(2H)-one]"
7,< 6.00,"Cc1cc(F)ccc1S(=O)(=O)Nc1ccc2c(c1)C(=O)NCC2 [Example 4A, 4-fluoro-2-methyl-N-(1-oxo-1,2,3,4-tetrahydroisoquinolin-7-yl)benzenesulfonamide]"
8,6.00 to 6.30,"CC(Nc1ccc2c(c1)C(=O)NCC2)c1cc(Cl)cc(Cl)n1 (racemic) [Example 97, 7-((1-(4,6-dichloropyridin-2-yl)ethyl)amino)-3,4-dihydroisoquinolin-1(2H)-one]"
9,6.30 to 7.00,"O=c1[nH]cc(Br)c2ccc(NS(=O)(=O)c3cccc(Cl)c3Cl)cc12 [Compound 57, N-(4-bromo-1-oxo-1,2-dihydroisoquinolin-7-yl)-2,3-dichlorobenzenesulfonamide]"
10,> 7.00,"Cc1c2ccc(NC(C)c3nc(Cl)c(Cl)s3)cc2nn1CC(N)=O (racemic) [Compound 312A, 2-(6-((1-(4,5-dichlorothiazol-2-yl)ethyl)amino)-3-methyl-2H-indazol-2-yl)acetamide]"
11,6.30 to 7.00,"CC(Nc1ccc2cc[nH]c(=O)c2c1)c1ccnc(Cl)c1Cl (racemic) [Example 131, 7-((1-(2,3-dichloropyridin-4-yl)ethyl)amino)isoquinolin-1(2H)-one]"
12,> 7.00,"CC(Nc1ccc2cc[nH]c(=O)c2c1)c1cc(F)ccc1Cl (racemic) [Example 135, 7-((1-(2-chloro-5-fluorophenyl)ethyl)amino)isoquinolin-1(2H)-one]"
13,> 7.00,"CC(Nc1ccc2cc[nH]c(=O)c2c1)c1cc(Cl)cc(Cl)c1Cl (racemic) [Example 138, 7-((1-(2,3,5-trichlorophenyl)ethyl)amino)isoquinolin-1(2H)-one]"
14,> 7.00,"CC(Nc1ccc2nc[nH]c(=O)c2c1)c1ccc(F)c(Cl)c1Cl (racemic) [Example 156, 6-[1-(2,3-dichloro-4-fluoro-phenyl)ethylamino]-3H-quinazolin-4-one]"
15,> 7.00,"CC1(C)CN(C(=O)CC(N)=O)c2cc(NS(=O)(=O)c3cccc(Cl)c3Cl)ccc21 [Compound 299, 3-(6-((2,3-dichlorophenyl)sulfonamido)-3,3-dimethylindolin-1-yl)-3-oxopropanamide]"
16,< 6.00,"CC1CCC(C)N(S(=O)(=O)Nc2ccc3c(c2)C(=O)NCC3)C1 (mixture of isomers) [Example 172, 2,5-dimethyl-N-(1-oxo-1,2,3,4-tetrahydroisoquinolin-7-yl)piperidine-1-sulfonamide]"
17,> 7.00,"CC(Nc1ccc2snc(C(N)=O)c2c1)c1nc(Cl)c(Cl)s1 (racemic) [Compound 345, 5-[1-(4,5-dichlorothiazol-2-yl)ethylamino]-1,2-benzothiazole-3-carboxamide]"
18,> 7.00,"Cc1c(F)ccc(C(C)Nc2ccc3cc[nH]c(=O)c3c2)c1Cl (racemic) [Example 192, 7-[1-(2-chloro-4-fluoro-3-methyl-phenyl)ethylamino]-2H-isoquinolin-1-one]"
19,> 7.00,"O=C1Nc2cc(NS(=O)(=O)c3cccc(Cl)c3Cl)ccc2CO1 [Compound 224, 2,3-dichloro-N-(2-oxo-1,4-dihydro-2H-benzo[d][1,3]oxazin-7-yl)benzenesulfonamide]"
20,> 7.00,"Cc1nn(CC(N)=O)c(=O)c2cc(NC(C)c3c(Cl)ccc(F)c3Cl)ccc12 (racemic) [Compound 300, 2-(7-((1-(2,6-dichloro-3-fluorophenyl)ethyl)amino)-4-methyl-1-oxophthalazin-2(1H)-yl)acetamide]"
